According to patent US12338203B2 (TAISHO PHARMACEUTICAL CO., LTD., priority 2019, dated 2025):

What follows are compounds tested against T1, human LPAR1 (Homo sapiens, UniProt Q92633) (assay: Test Example 1: antagonism against response of LPA-induced increase in intracellular Ca2+ concentration in RH7777 cells stably expressing human LPAR1). Conditions: not given.
T1 construct: expressed in transfected cells
T1 sequence (Q92633 whole entry): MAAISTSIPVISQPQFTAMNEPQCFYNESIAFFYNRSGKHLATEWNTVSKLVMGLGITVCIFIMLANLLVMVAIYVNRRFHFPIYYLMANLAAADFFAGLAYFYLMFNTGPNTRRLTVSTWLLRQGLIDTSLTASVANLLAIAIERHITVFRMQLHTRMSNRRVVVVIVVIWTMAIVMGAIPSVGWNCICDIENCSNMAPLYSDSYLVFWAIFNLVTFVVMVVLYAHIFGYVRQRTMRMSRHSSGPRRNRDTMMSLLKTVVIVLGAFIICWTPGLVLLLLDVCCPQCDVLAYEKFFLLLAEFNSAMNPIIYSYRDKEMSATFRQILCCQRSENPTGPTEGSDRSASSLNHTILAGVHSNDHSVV
Assay type: cell-based
Protocol: (1) Preparation of RH7777 cells stably expressing human LPAR1
The human LPAR1 expression vector was transfected into RH7777 cells to acquire human LPAR1 expressing cells.
(2) Test of antagonism against response of LPA-induced increase in intracellular Ca^2+ concentration
Cells stably expressing human LPAR1 were used for a test of antagonism against response of LPA-induced increase in intracellular Ca^2+ concentration.
The cells were seeded onto the Poly-D-Lysine 96 well black plate and incubated overnight. […] 50 μL of the Basal Buffer (1×HBSS, 20 mM HEPES, 2.5 mM Probenecid, 0.05% BSA, 0.25 mg/mL Amaranth, pH 7.4) containing the test compound was added thereto, followed by incubation at 37° C. for 30 minutes. In FDSS6000 (Hamamatsu Photonics K.K.), LPAs were added, and the change in intracellular Ca^2+ concentration was detected using the fluorescence value of a wavelength of 540 nm by an excitation wavelength of 480 nm as an indicator. […] The Rmax under […] without the test compound was used as the control value. The Rmax under Basal Buffer stimulation with no LPAs or test compounds was used as the basal value.
The percentage (%) of increase in intracellular Ca^2+ concentration was calculated by dividing the value obtained by subtracting the basal value from Rmax in the presence of LPAs and each concentration of the test compound by the value obtained by subtracting the basal value from the control value. The concentration of each test compound was plotted on the X axis and the percentage (%) of increase in intracellular Ca^2+ concentration was plotted on the Y axis, and the IC50 value was calculated by nonlinear regression using XLfit.
An IC50 of 4680 nM was found for `COc1cc(CN(CCCCc2ccccc2)C(=O)NC(CC(C)C)C(=O)O)cc(OC)c1C` (stereo not shown) [Example 1-5] in this work.

Same assay, conditions: RH7777 cells stably expressing human LPAR1; Fluo-4 fluorescence, FDSS6000; read-out: IC50 value (concentration producing 50% antagonism against response of LPA-induced increase in intracellular Ca2+ concentration) (converted)
An IC50 of 0.516 nM was found for `CCOc1cc([C@@H](C)N(CCOCc2ccccc2)C(=O)NC2(C(=O)O)CCOCC2)c(Cl)c(OCC)c1C(C)=O` [Example 5-39] in this work. An IC50 of 3.38 nM was found for `CCOc1c(C2CC2)ccc([C@@H](C)N(CCO[C@H](C)c2ccccc2)C(=O)NC2(C(=O)O)CCC2)c1C` [Example 4-171] in this work. An IC50 of 22.2 nM was found for `O=C(NC1(C(=O)O)CC(F)(F)C1)N(CCCCc1ccccc1)C1CCc2c(Cl)cc(Cl)cc21` (stereo not shown) [Example 5-116, 1-{[(4,6-Dichloro-2,3-Dihydro-1H-Inden-1-Yl) (4-Phenylbutyl) Carbamoyl]Amino}-3,3-Difluorocyclobutane-1-Carboxylic Acid] in this work. An IC50 of 30.6 nM was found for `CCOc1cc(C(C)N(CCCCCc2ccccc2)C(=O)NC2(C(=O)O)CC(F)(F)C2)cc(OCC)c1C` (stereo not shown) [Example 4-37] in this work. An IC50 of 15.4 nM was found for `CCOc1c(C(C)=O)ccc([C@@H](C)N(CCC(F)(F)Cc2ccccc2)C(=O)NC2(C(=O)O)CC(F)(F)C2)c1C` [Example 4-88] in this work. An IC50 of 4.16 nM was found for `CCOc1cc(C(C)N(CCOC(C)c2ccccc2)C(=O)NC2(C(=O)O)CC2)c(Cl)c(OCC)c1C(C)=O` (stereo not shown) [Example 5-187] in this work. An IC50 of 5640 nM was found for `CCOc1cc(C(C)N(CCCCc2ccccc2)C(=O)NC2(C(=O)O)CC(F)(F)C2)cc(OCC)c1C(=O)O` (stereo not shown) [Example 1-39] in this work. An IC50 of 3.66 nM was found for `CCOC1CC(NC(=O)N(CCOCc2ccccc2)C(C)c2cc(OC)c(C3CC3)c(OC)c2)(C(=O)O)C1` (stereo not shown) [Example 5-162] in this work. An IC50 of 1.56 nM was found for `CCOc1cc([C@@H](C)N(CCO[C@@H](C)c2ccccc2)C(=O)N[C@]2(C(=O)O)C[C@@H](OCC)C2)c(Cl)c(OCC)c1C(C)O` (single isomer, unassigned) [Example 5-62] in this work. An IC50 of 4.63 nM was found for `CCOc1cc([C@@H](C)N(CCC(F)(F)Cc2ccccc2)C(=O)NC2(C(=O)O)CC(F)(F)C2)c(Cl)c(OCC)c1C(C)=O` [Example 5-40] in this work. An IC50 of 3.36 nM was found for `CCOc1cc(C(C)N(CCCCc2ccccc2)C(=O)NC2(C(=O)O)CC(F)(F)C2)c(F)c(OCC)c1C` (stereo not shown) [Example 5-83] in this work. An IC50 of 3.94 nM was found for `CCO[C@H]1C[C@@](NC(=O)N(CCOCc2ccccc2)C(C)c2cc(OC)c(C(C)=O)c(OC)c2Cl)(C(=O)O)C1` (stereo partly shown) [Example 5-127] in this work. An IC50 of 8.72 nM was found for `CCOc1cc([C@@H](C)N(CCCCc2ccccc2)C(=O)NC2(C(=O)O)CC(O)C2)cc(OCC)c1C` (stereo partly shown) [Example 1-106] in this work. An IC50 of 7.86 nM was found for `CCOc1c(C(C)O)ccc([C@@H](C)N(CCCCc2ccccc2)C(=O)NC2(C(=O)O)CC(F)(F)C2)c1C` (single isomer, unassigned) [Example 1-79] in this work. An IC50 of 1670 nM was found for `CCOc1cc(C(C)N(CCCCc2ccccc2)C(=O)NC2(C(=O)O)CCC(C(=O)O)CC2)cc(OCC)c1C` (stereo not shown) [Example 1-120] in this work. An IC50 of 0.809 nM was found for `CCOc1cc(C(C)N(CCOCc2ccccc2)C(=O)NC2(C(=O)O)CCOCC2)c(Cl)c(OCC)c1C1CC1` (stereo not shown) [Example 5-225] in this work. An IC50 of 2.75 nM was found for `CCOc1cc(C(C)N(CCCCc2ccccc2)C(=O)NC2(C(=O)O)CC(OCC)C2)c(Cl)c(OCC)c1C(C)=O` (stereo not shown) [Example 5-209] in this work. An IC50 of 45.4 nM was found for `CCOc1cc(OCC)cc([C@@H](C)N(CCCCc2ccccc2)C(=O)NC2(C(=O)O)Cc3ccccc3C2)c1` [Example 5-12] in this work. An IC50 of 4.74 nM was found for `CCOc1cc([C@@H](C)N(CCO[C@@H](C)c2ccccc2)C(=O)NC2(C(=O)O)CC2)c(C)c(OCC)c1C` [Example 5-75] in this work. An IC50 of 3.13 nM was found for `CCOc1cc([C@@H](C)N(CCCCc2ccccc2)C(=O)NC2(C(=O)O)CC(OCC)C2)cc(OCC)c1C` (stereo partly shown) [Example 1-100] in this work. An IC50 of 2.53 nM was found for `CCOc1cc(C(C)N(CCOCc2ccccc2)C(=O)NC2(C(=O)O)CC2)c(Cl)c(OCC)c1C(C)=O` (stereo not shown) [Example 5-184] in this work. An IC50 of 4.29 nM was found for `CCOc1cc([C@@H](C)N(CCOCc2ccccc2)C(=O)NC2CCOCC2C(=O)O)c(Cl)c(OCC)c1C(C)O` (single isomer, unassigned) [Example 5-70] in this work. An IC50 of 2.68 nM was found for `CCOc1cc([C@@H](C)N(CCCC(F)(F)c2ccccc2)C(=O)NC2(C(=O)O)CCC2)cc(OCC)c1C(C)O` (stereo partly shown) [Example 4-52] in this work. An IC50 of 1.42 nM was found for `CCOc1cc([C@@H](C)N(CCOCc2ccccc2)C(=O)NC2(C(=O)O)CC(OC)C2)c(C)c(OCC)c1C(C)=O` (stereo partly shown) [Example 5-73] in this work. An IC50 of 1.04 nM was found for `CCOc1c(C(C)=O)ccc([C@@H](C)N(CCOCc2ccccc2)C(=O)NC2(C(=O)O)CC(F)(F)C2)c1C` [Example 4-106] in this work. An IC50 of 3.63 nM was found for `CCOc1cc([C@@H](C)N(CCO[C@@H](C)c2ccccc2)C(=O)N[C@]2(C(=O)O)C[C@@H](OCC)C2)cc(OCC)c1C(C)=O` [Example 4-97, Trans-1-[([(1R)-1-(4-Acetyl-3,5-Diethoxyphenyl)Ethyl]{2-[(1S)-1-Phenylethoxy]Ethyl}Carbamoyl)Amino]-3-Ethoxycyclobutane-1-Carboxylic Acid] in this work. An IC50 of 0.948 nM was found for `CCOc1cc([C@@H](C)N(CCO[C@@H](C)c2ccccc2)C(=O)NC2(C(=O)O)CC(F)(F)C2)cc(OCC)c1C1CC1` [Example 4-118] in this work. An IC50 of 16.8 nM was found for `COc1cc([C@@H](C)N(CCCCc2ccccc2)C(=O)NC2(C(=O)O)CCCC2)cc(OC)c1C` [Example 1-117] in this work. An IC50 of 4.69 nM was found for `CCOc1cc([C@@H](C)N(CCCCc2ccccc2)C(=O)NC2(c3nnn[nH]3)CC(F)(F)C2)cc(OCC)c1C(C)O` (stereo partly drawn) [Example 10-9, N-{(1R)-1-[3,5-Diethoxy-4-(1-Hydroxyethyl)Phenyl]Ethyl}-N′-[3,3-Difluoro-1-(1H-Tetrazol-5-Yl)Cyclobutyl]-N-(4-Phenylbutyl) Urea] in this work. An IC50 of 2.71 nM was found for `CCOc1cc(C(C)N(CCCCc2ccccc2)C(=O)NC2(C(=O)O)CC(F)(F)C2)cc(OCC)c1CC` (stereo not shown) [Example 1-47] in this work. An IC50 of 3.92 nM was found for `CCOc1cc([C@@H](C)N(CCO[C@@H](C)c2ccccc2)C(=O)N[C@]2(C(=O)O)C[C@H](OCC)C2)cc(OCC)c1C(C)O` (stereo partly shown) [Example 4-134] in this work. An IC50 of 1.95 nM was found for `CCOc1cc([C@@H](C)N(CCCCc2ccccc2)C(=O)NC2(C(=O)O)CC(F)(F)C2)c(Cl)c(OCC)c1C(C)O` (single isomer, unassigned) [Example 5-52] in this work. An IC50 of 4.24 nM was found for `CCOc1cc(C(C)N(CCCCc2ccccc2)C(=O)NC2(C(=O)O)CC(F)(F)C2)cc(OCC)c1C(=O)CC` (stereo not shown) [Example 1-58] in this work. An IC50 of 6.4 nM was found for `COc1cc(C(C)N(CCO[C@@H](C)c2ccccc2)C(=O)NC2(C(=O)O)CCOCC2)c(Cl)c(OC)c1C1CC1` (stereo partly shown) [Example 5-180] in this work. An IC50 of 0.712 nM was found for `CCOc1cc(C(C)N(CCOCc2ccccc2)C(=O)NC2(C(=O)O)CC(OC)C2)c(C)c(OCC)c1C1CC1` (stereo not shown) [Example 5-201] in this work. An IC50 of 103 nM was found for `CCOc1cc(C(C)N(CCCCc2ccccc2)C(=O)NC2(C(=O)O)CC(F)(F)C2)cc(OCC)c1C(=O)NC` (stereo not shown) [Example 1-61] in this work. An IC50 of 3.15 nM was found for `CCOc1cc([C@@H](C)N(CCCC(C)c2ccccc2)C(=O)NC2(C(=O)O)CC(F)(F)C2)cc(OCC)c1C` (stereo partly drawn) [Example 4-40, 1-({[(1R)-1-(3,5-Diethoxy-4-Methylphenyl)Ethyl](4-Phenylpentyl) Carbamoyl}Amino)-3,3-Difluorocyclobutane-1-Carboxylic Acid] in this work. An IC50 of 9.68 nM was found for `CCOc1cc([C@@H](C)N(CCCCc2ccc(C)cc2)C(=O)NC2(C(=O)O)CC(F)(F)C2)cc(OCC)c1C` [Example 4-17] in this work. An IC50 of 0.961 nM was found for `COc1cc(C(C)N(CCOCc2ccccc2)C(=O)NC2(C(=O)O)CC(OC)C2)c(Cl)c(OC)c1C1CC1` (stereo not shown) [Example 5-153] in this work. An IC50 of 9.3 nM was found for `CCOc1cc(C(C)N(CCCCc2ccccc2)C(=O)NC2(c3nn[nH]n3)CC(F)(F)C2)c(Cl)c(OCC)c1C(C)=O` (stereo not shown) [10-8] in this work. An IC50 of 1.33 nM was found for `CCOc1cc([C@@H](C)N(CCCC(F)(F)c2ccccc2)C(=O)NC2(C(=O)O)CC(F)(F)C2)cc(OCC)c1C(C)=O` [Example 4-56] in this work. An IC50 of 3.12 nM was found for `CCOc1cc(C(C)N(CCCCc2ccccc2)C(=O)NC2(C(=O)O)CC(C)(C)C2)cc(OCC)c1C(C)=O` (stereo not shown) [Example 1-84] in this work. An IC50 of 7.22 nM was found for `CCOc1cc(C(C)N(CCCCc2ccccc2)C(=O)NC2(C(=O)O)CC(F)(F)C2)c2ccn(CC)c2c1` (stereo not shown) [Example 5-95] in this work. An IC50 of 2.13 nM was found for `CCOc1cc(C(C)N(CCOCc2ccccc2)C(=O)NC2(C(=O)O)CC(OCC)C2)c(Cl)c(OCC)c1C(C)=O` (stereo not shown) [Example 5-220] in this work. An IC50 of 4.63 nM was found for `CCOc1cc([C@@H](C)N(CCO[C@@H](C)c2ccccc2)C(=O)N[C@]2(C(=O)O)C[C@H](OC)C2)c(Cl)c(OCC)c1C(C)=O` [Example 5-29] in this work. An IC50 of 4.46 nM was found for `COc1cc(C(C)N(CCO[C@@H](C)c2ccccc2)C(=O)NC2(C(=O)O)CC(F)(F)C2)c(C)c(OC)c1C` (stereo partly shown) [Example 5-151] in this work. An IC50 of 10.7 nM was found for `CCOc1cc([C@@H](C)N(CCCC(F)(F)c2ccccc2)C(=O)NC2(C(=O)O)CCOCC2)cc(OCC)c1C(C)O` (stereo partly shown) [Example 4-76] in this work. An IC50 of 54.2 nM was found for `COc1cc(C(C)N(CCOCc2ccccc2)C(=O)NC2(C(=O)O)CCOCC2)cc(OC)c1C(C)=O` (stereo not shown) [Example 5-172] in this work. An IC50 of 4.1 nM was found for `CCOc1cc([C@@H](C)N(CCC(F)(F)Cc2ccccc2)C(=O)NC2(C(=O)O)CCC2)cc(OCC)c1C1CC1` [Example 4-82] in this work. An IC50 of 280 nM was found for `CCOc1cc([C@@H](C)N(CCCCc2ccccc2)C(=O)NCCCC(=O)O)cc(OCC)c1C` [Example 1-15] in this work. An IC50 of 19.1 nM was found for `COCc1cc(OC)cc(C(C)N(CCCCc2ccccc2)C(=O)NC2(C(=O)O)CC(F)(F)C2)c1` (stereo not shown) [Example 5-14] in this work.
